# Experiments:
# Assay in all cases: p24 secretion of HIV-1-infected PBMCs
# Assay type in all cases: cell-based
# HIV-1 isolate: UG92021 = conditions: for % p24 secretion Week 1-rb / % p24 secretion Week 2-rb / % p24 secretion Week 3-rb / % p24 secretion Week 4-rb: treatment removed 2 weeks
# Method: (§1) Clearance of HIV-1 primary isolates from infected human cells by NB-DNJ was assessed using phytohemagglutinin (PHA)-activated peripheral blood mononuclear cells (PBMCs) as indicator cells and the determination of p24 antigen production as the end point.
# (§2) PBMCs from four normal (uninfected) donors were isolated, pooled, and stimulated with PHA (5 μg/ml) for 48 h followed by PHA plus interleukin-2 (40 U/ml) for 72 h in RPMI 1640 medium containing 10% heat-inactivated fetal bovine serum (FBS), 100 U of penicillin per ml, 100 μg of streptomycin per ml, and 2 mM L-glutamine. All experiments were performed in 96-well microtiter plates. To infect cells, 100 μl of PHA-activated PBMCs (5×10^5/ml) was added to each well, after which an equal volume containing 100 50% tissue culture infective doses (TCID50) of primary isolate stock was added. After an overnight incubation, the cells were washed three times with tissue culture medium, and finally re-suspended in medium containing the appropriate liposome treatment or free NB-DNJ. On day 7, approximately 10-30% of the culture volume containing secreted HIV-1 virions was used to infect naïve PBMCs for a second round of infection and treatment (volume transferred was calculated to be the volume necessary for the untreated control of that isolate to infect naïve cells at a TCID50=100). Rounds of treatment and infection of naïve cells were continued over four weeks, and at every time point cellular supernatant containing secreted virions was isolated and used in capture ELISAs to determine p24 concentration (measure of secretion). Additionally, supernatant isolated at each time point throughout treatment was used to infect naïve PBMCs (TCID50=100) for two weeks with no further treatment, which allowed for the observation of a rebound in viral activity.
# (§3) PBMCs infected with 8 primary isolates (listed in Table 3) were incubated in the presence of free NB-DNJ (concentrations ranging 0-1 mM) or liposome-encapsulated NB-DNJ (0-3.75 μM, final lipid concentration of 50 μM).
# HIV-1 isolate: UG92046 = conditions: for % p24 secretion Week 1-rb / % p24 secretion Week 2-rb / % p24 secretion Week 3-rb / % p24 secretion Week 4-rb: treatment removed 2 weeks
# Method: as §1, §2, §3
# HIV-1 isolate: HT92599 = tested on: HIV-1 isolate: HT92599
# Method: as §1, §2, §3
# [1] = NB-DNJ 250 uM, treatment removed 2 weeks
smiles,measurement,setting,value
"CCCCN1C[C@H](O)[C@@H](O)[C@H](O)[C@H]1CO [NB-DNJ, N-butyl-1,5-dideoxy-1,5-imino-D-glucitol]",% p24 secretion Week 1,HIV-1 isolate: UG92021; NB-DNJ 250 uM,90%
same,% p24 secretion Week 2,HIV-1 isolate: UG92021; NB-DNJ 250 uM,83%
same,% p24 secretion Week 3,HIV-1 isolate: UG92021; NB-DNJ 250 uM,88%
same,% p24 secretion Week 4,HIV-1 isolate: UG92021; NB-DNJ 250 uM,77%
same,% p24 secretion Week 1-rb,HIV-1 isolate: UG92021; NB-DNJ 250 uM,110%
same,% p24 secretion Week 2-rb,HIV-1 isolate: UG92021; NB-DNJ 250 uM,101%
same,% p24 secretion Week 3-rb,HIV-1 isolate: UG92021; NB-DNJ 250 uM,91%
same,% p24 secretion Week 4-rb,HIV-1 isolate: UG92021; NB-DNJ 250 uM,85%
same,% p24 secretion Week 1,HIV-1 isolate: UG92021; NB-DNJ 500 uM,85%
same,% p24 secretion Week 2,HIV-1 isolate: UG92021; NB-DNJ 500 uM,56%
same,% p24 secretion Week 3,HIV-1 isolate: UG92021; NB-DNJ 500 uM,23%
same,% p24 secretion Week 4,HIV-1 isolate: UG92021; NB-DNJ 500 uM,8%
same,% p24 secretion Week 1-rb,HIV-1 isolate: UG92021; NB-DNJ 500 uM,98%
same,% p24 secretion Week 2-rb,HIV-1 isolate: UG92021; NB-DNJ 500 uM,62%
same,% p24 secretion Week 3-rb,HIV-1 isolate: UG92021; NB-DNJ 500 uM,27%
same,% p24 secretion Week 4-rb,HIV-1 isolate: UG92021; NB-DNJ 500 uM,19%
same,% p24 secretion Week 1,HIV-1 isolate: UG92021; NB-DNJ 1000 uM,61%
same,% p24 secretion Week 2,HIV-1 isolate: UG92021; NB-DNJ 1000 uM,21%
same,% p24 secretion Week 3,HIV-1 isolate: UG92021; NB-DNJ 1000 uM,5%
same,% p24 secretion Week 4,HIV-1 isolate: UG92021; NB-DNJ 1000 uM,0%
same,% p24 secretion Week 1-rb,HIV-1 isolate: UG92021; NB-DNJ 1000 uM,72%
same,% p24 secretion Week 2-rb,HIV-1 isolate: UG92021; NB-DNJ 1000 uM,19%
same,% p24 secretion Week 3-rb,HIV-1 isolate: UG92021; NB-DNJ 1000 uM,3%
same,% p24 secretion Week 4-rb,HIV-1 isolate: UG92021; NB-DNJ 1000 uM,0%
same,% p24 secretion Week 1,HIV-1 isolate: UG92046; NB-DNJ 250 uM,91%
same,% p24 secretion Week 2,HIV-1 isolate: UG92046; NB-DNJ 250 uM,115%
same,% p24 secretion Week 3,HIV-1 isolate: UG92046; NB-DNJ 250 uM,91%
same,% p24 secretion Week 4,HIV-1 isolate: UG92046; NB-DNJ 250 uM,79%
same,% p24 secretion Week 1-rb,HIV-1 isolate: UG92046; NB-DNJ 250 uM,99%
same,% p24 secretion Week 2-rb,HIV-1 isolate: UG92046; NB-DNJ 250 uM,92%
same,% p24 secretion Week 3-rb,HIV-1 isolate: UG92046; NB-DNJ 250 uM,94%
same,% p24 secretion Week 4-rb,HIV-1 isolate: UG92046; NB-DNJ 250 uM,89%
same,% p24 secretion Week 1,HIV-1 isolate: UG92046; NB-DNJ 500 uM,79%
same,% p24 secretion Week 2,HIV-1 isolate: UG92046; NB-DNJ 500 uM,39%
same,% p24 secretion Week 3,HIV-1 isolate: UG92046; NB-DNJ 500 uM,10%
same,% p24 secretion Week 4,HIV-1 isolate: UG92046; NB-DNJ 500 uM,0%
same,% p24 secretion Week 1-rb,HIV-1 isolate: UG92046; NB-DNJ 500 uM,75%
same,% p24 secretion Week 2-rb,HIV-1 isolate: UG92046; NB-DNJ 500 uM,43%
same,% p24 secretion Week 3-rb,HIV-1 isolate: UG92046; NB-DNJ 500 uM,15%
same,% p24 secretion Week 4-rb,HIV-1 isolate: UG92046; NB-DNJ 500 uM,0%
same,% p24 secretion Week 1,HIV-1 isolate: UG92046; NB-DNJ 1000 uM,64%
same,% p24 secretion Week 2,HIV-1 isolate: UG92046; NB-DNJ 1000 uM,15%
same,% p24 secretion Week 3,HIV-1 isolate: UG92046; NB-DNJ 1000 uM,3%
same,% p24 secretion Week 4,HIV-1 isolate: UG92046; NB-DNJ 1000 uM,0%
same,% p24 secretion Week 1-rb,HIV-1 isolate: UG92046; NB-DNJ 1000 uM,64%
same,% p24 secretion Week 2-rb,HIV-1 isolate: UG92046; NB-DNJ 1000 uM,21%
same,% p24 secretion Week 3-rb,HIV-1 isolate: UG92046; NB-DNJ 1000 uM,1%
same,% p24 secretion Week 4-rb,HIV-1 isolate: UG92046; NB-DNJ 1000 uM,0%
same,reduction in viral secretion,"HIV-1 isolate: HT92599; 1 mM free in medium, first week",50%
same,% p24 secretion Week 1,HIV-1 isolate: HT92599; NB-DNJ 250 uM,99%
same,% p24 secretion Week 2,HIV-1 isolate: HT92599; NB-DNJ 250 uM,84%
same,% p24 secretion Week 3,HIV-1 isolate: HT92599; NB-DNJ 250 uM,88%
same,% p24 secretion Week 4,HIV-1 isolate: HT92599; NB-DNJ 250 uM,81%
same,% p24 secretion Week 1-rb,HIV-1 isolate: HT92599; [1],93%
same,% p24 secretion Week 2-rb,HIV-1 isolate: HT92599; [1],99%
same,% p24 secretion Week 3-rb,HIV-1 isolate: HT92599; [1],95%
same,% p24 secretion Week 4-rb,HIV-1 isolate: HT92599; [1],88%
same,% p24 secretion Week 1,HIV-1 isolate: HT92599; NB-DNJ 500 uM,53%
same,% p24 secretion Week 2,HIV-1 isolate: HT92599; NB-DNJ 500 uM,19%
same,% p24 secretion Week 3,HIV-1 isolate: HT92599; NB-DNJ 500 uM,8%
same,% p24 secretion Week 4,HIV-1 isolate: HT92599; NB-DNJ 500 uM,1%
same,% p24 secretion Week 1-rb,"HIV-1 isolate: HT92599; NB-DNJ 500 uM, treatment removed 2 weeks",67%
